For one molecule, collagen synthesis results are on record in patent US20070275084A1, “Compositions And Methods For The Treatment Of Skin Damage” (priority 2003, published 2007).

The assay deals with human skin fibroblasts. The assay is described as follows: Collagen synthesis by human skin fibroblasts (3H-proline incorporation into collagenous protein). Format: cell-based. As to conditions: carnosine alone 60 mM, 48 h (FIG. 1 column 11). The method, then:
After starving for up to 6 hours, cells were exposed to a mixture of BMF and carnosine or the appropriate controls for 48 hours. Tritiated proline (L-[5-^3H] proline) was included in the culture medium and at the end of the experiments, the amount of ^3H proline incorporated into collagenous protein was determined as an index of collagen synthesis. A subset of cultures were treated with […] for the final 6-8 hours of the culture to determine the collagen-specific nature of incorporated radioactivity.
Human diploid ftbroblasts were obtained from neonatal foreskins collected from the Womens' and Chldrens' Hospital (North Adelaide, Australia). […]
Collagen was purified from the culture medium by successive precipitation with salt solutions at acid and neutral pH. […] The amount of radioactivity in the samples was determined using a Stcinillation counter (Wailac) as an index of the amount of new collagen synthesised. The radioactivity in each replicate well was normalised as a percentage of the average radioactivity present in the control wells from each experiment. […]

In the case of `NCCC(=O)N[C@@H](Cc1c[nH]cn1)C(=O)O` [Carnosine, beta-alanyl-L-histidine], the collagen synthesis result is “did not stimulate collagen synthesis”.
